Source: ChEMBL document CHEMBL3244206, “Quinazolines as inhibitors of dihydrofolate reductase. 4. Classical analogues of folic and isofolic acids” (J Med Chem, 1977)

system: L1210; assay: Antitumor activity against mouse L1210 cells allografted in mouse assessed as increase in survival at 100 mg/kg administered on day 1 to 3 relative to control; format: functional; conditions: L1210, 24 h

**Q.** `Nc1nc(O)c2cc(CN(C=O)c3ccc(C(=O)N[C@@H](CCC(=O)O)C(=O)O)cc3)ccc2n1` was tested. Which survival at 100 mg/kg did it give?
**A.** The survival at 100 mg/kg was 19%.

system: L1210; assay: Antitumor activity against mouse L1210 cells allografted in mouse assessed as increase in survival at 100 mg/kg administered on day 1 to 5 relative to control; format: functional; conditions: L1210, 24 h

**Q.** How did the survival at 100 mg/kg turn out when `Nc1nc(O)c2cc(CN(C=O)c3ccc(C(=O)N[C@@H](CCC(=O)O)C(=O)O)cc3)ccc2n1` was run?
**A.** Its survival at 100 mg/kg is 25%.

system: Mus musculus; assay: Toxicity in mouse allografted with mouse L1210 cells assessed as mortality at 75 mg/kg administered on day 1 measured on day 2; format: organism-based; set-up: dose 75 mg/kg; conditions: in vivo

**Q.** With `Nc1nc(N)c2cc(CN(C=O)c3ccc(C(=O)N[C@@H](CCC(=O)O)C(=O)O)cc3)ccc2n1` as the compound, how does the Activity read?
**A.** Its Activity is “Toxic”.

target: T1, Dihydrofolate reductase (Enterococcus faecium, UniProt P00380); assay: Inhibition of Streptococcus faecium dihydrofolate reductase using dihydrofolate as substrate; conditions: read-out: I50
T1 sequence (P00380 whole entry): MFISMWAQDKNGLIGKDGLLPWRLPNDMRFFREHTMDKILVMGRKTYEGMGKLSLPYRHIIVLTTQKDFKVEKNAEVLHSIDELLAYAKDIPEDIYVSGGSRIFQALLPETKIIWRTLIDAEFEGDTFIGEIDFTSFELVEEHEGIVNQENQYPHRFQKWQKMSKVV

**Q.** For `Cc1c(NCc2ccc(C(=O)N[C@@H](CCC(=O)O)C(=O)O)cc2)ccc2nc(N)nc(N)c12`, which IC50 is on record?
**A.** Its IC50 is 8.3 nM.

**Q.** With `Cc1c(CNc2ccc(C(=O)N[C@@H](CC(=O)O)C(=O)O)cc2)ccc2ncnc(N)c12` [METHASQUIN] as the compound, how does the IC50 read?
**A.** The IC50 was 2.5 nM.

**Q.** Which IC50 does the source give for `Nc1nc(N)c2cc(NCc3ccc(C(=O)N[C@@H](CCC(=O)O)C(=O)O)cc3)ccc2n1` here?
**A.** Its IC50 is 32 nM.

**Q.** Which IC50 does the source give for `Cc1c(CNc2ccc(C(=O)N[C@@H](CCC(=O)O)C(=O)O)cc2)ccc2nc(N)nc(N)c12` here?
**A.** The IC50 was 2.2 nM.

**Q.** For `Nc1nc(O)c2cc(NCc3ccc(C(=O)N[C@@H](CCC(=O)O)C(=O)O)cc3)ccc2n1`, which IC50 is on record?
**A.** Its IC50 is 22000 nM.

**Q.** How did the IC50 turn out when `CCOC(=O)CC[C@H](NC(=O)c1ccc(CNc2ccc3nc(N)nc(O)c3c2)cc1)C(=O)OCC` was run?
**A.** Its IC50 is 24000 nM.

**Q.** How did the IC50 turn out when `CCOC(=O)CC[C@H](NC(=O)c1ccc(CNc2ccc3nc(N)nc(N)c3c2)cc1)C(=O)OCC` was run?
**A.** Its IC50 is 32 nM.

**Q.** How did the IC50 turn out when `CCOC(=O)CC[C@H](NC(=O)c1ccc(CNc2ccc3nc(N)nc(O)c3c2C)cc1)C(=O)OCC` was run?
**A.** The IC50 was 115000 nM.

**Q.** Which IC50 does the source give for `CCOC(=O)CC[C@H](NC(=O)c1ccc(NCc2ccc3nc(N)nc(N)c3c2Cl)cc1)C(=O)OCC` here?
**A.** Its IC50 is 1.7 nM.

**Q.** Which IC50 does the source give for `Nc1nc(N)c2c(Cl)c(CNc3ccc(C(=O)N[C@@H](CCC(=O)O)C(=O)O)cc3)ccc2n1` here?
**A.** The IC50 was 0.7 nM.

**Q.** With `Cc1c(NCc2ccc(C(=O)N[C@@H](CCC(=O)O)C(=O)O)cc2)ccc2nc(N)nc(O)c12` as the compound, how does the IC50 read?
**A.** Its IC50 is 5900 nM.

**Q.** Which IC50 does the source give for `CCOC(=O)CC[C@H](NC(=O)c1ccc(CNc2ccc3nc(N)nc(N)c3c2C)cc1)C(=O)OCC` here?
**A.** Its IC50 is 3.9 nM.

**Q.** Which IC50 does the source give for `CCOC(=O)CC[C@H](NC(=O)c1ccc(NCc2ccc3nc(N)nc(N)c3c2C)cc1)C(=O)OCC` here?
**A.** The IC50 was 2.4 nM.

system: L1210; assay: Antitumor activity against mouse L1210 cells allografted in mouse assessed as increase in survival at 75 mg/kg administered on day 1 relative to control; format: functional; conditions: L1210, 24 h

**Q.** With `Nc1nc(N)c2cc(CN(C=O)c3ccc(C(=O)N[C@@H](CCC(=O)O)C(=O)O)cc3)ccc2n1` as the compound, how does the survival at 75 mg/kg read?
**A.** Its survival at 75 mg/kg is 0%.

system: L1210; assay: Antitumor activity against mouse L1210 cells allografted in mouse assessed as increase in survival at 200 mg/kg administered on day 1 to 3 relative to control; format: functional; conditions: L1210, 24 h

**Q.** Which survival at 200 mg/kg does the source give for `Nc1nc(O)c2cc(CN(C=O)c3ccc(C(=O)N[C@@H](CCC(=O)O)C(=O)O)cc3)ccc2n1` here?
**A.** Its survival at 200 mg/kg is 15%.
